Assay results from patent US6562814B2, “3-thioxo-[1,2,4]-oxadiazinan-5-one derivatives” (Wyeth, priority 2000, dated 2003).

Columns and labels:
serum HDL cholesterol = assay: HDL cholesterol determination in cholesterol/cholic acid-fed rats; format: in vivo, Male Sprague-Dawley rats; conditions: Rattus norvegicus, feed or water, 192 h, 8 days, rats fed chow with 0.25% cholic acid and 1.0% cholesterol, FPLC, read-out: HDL Cholesterol Level Increase (%); for change in vivo at 100 mg/kg/day: dose 100 mg/kg/day in diet
Description: The ability of the compounds of this invention to increase blood serum HDL levels was established by the following standard experimental procedure for determination of HDL cholesterol:
Male Sprague-Dawley rats weighing 200-225 g were housed two per cage and fed Purina Rodent Chow Special Mix 5001-S supplemented with 0.25% cholic acid and 1.0% cholesterol and water ad libitum for 8 days. Each test substance is administered to a group of six rats fed the same diet with the test diet mixed in as 0.005-0.1% of the total diet. Body weight and food consumption were recorded prior to diet administration and at termination. Typical doses of the test substances were 5-100 mg/kg/day.
At termination, blood was collected from anesthetized rats and the serum was separated by centrifugation. Total serum cholesterol was assayed using the Sigma Diagnostics enzymatic kit for the determination of cholesterol, Procedure No. 352, modified for use with ninety-six well microtiter plates. After reconstitution with water the reagent contains 300 U/I cholesterol oxidase, 100 U/I cholesterol esterase, 1000 U/I horse radish peroxidase, 0.3 mmoles/l 4-aminoantipyrine and 30.0 mmoles/l p-hydroxybenzenesulfonate in a pH 6.5 buffer. In the reaction cholesterol was oxidized to produce hydrogen peroxide which was used to form a quinoneimine dye. The concentration of dye formed was measured spectrophotometrically by absorbence at 490 nm after incubation at 25° C. for 30 minutes. The concentration of cholesterol was determined for each serum sample relative to a commercial standard from Sigma.
HDL cholesterol concentrations in serum are determined by separation of lipoprotein classes by fast protein liquid chromatography (FPLC) by a modification of the method of Kieft et al., J. Lipid Res., 32 (1991) 859-866. 25 ul of serum was injected onto Superose 12 and Superose 6 (Pharmacia), in series, with a column buffer of 0.05 M Tris (2-amino-2-hydroxymethyl-1,3-propanediol) and 0.15 M sodium chloride at a flow rate of 0.5 ml/min. The eluted sample was mixed on line with Boehringer-Mannheim cholesterol reagent pumped at 0.2 ml/min. The combined eluents are mixed and incubated on line through a knitted coil (Applied Biosciences) maintained at a temperature of 45C. The eluent was monitored by measuring absorbence at 490 nm and gives a continuous absorbence signal proportional to the cholesterol concentration. The relative concentration of each lipoprotein class was calculated as the percent of total absorbence. HDL cholesterol concentration, in serum, was calculated as the percent of total cholesterol as determined by FPLC multiplied by the total serum cholesterol concentration.
Test compounds were administered at the specified dose. Each test substance was administered to a group of six rats. The duration of treatment was eight days.

melting point | SMILES | change in vivo at 100 mg/kg/day (serum HDL cholesterol) | change in vivo at 85 mg/kg/day (serum HDL cholesterol; dose 85 mg/kg/day in diet)
141 to 143 °C | Cc1cc(Cl)ccc1N1C(=O)CON(C)C1=S [Example 1, 4-(4-Chloro-2-methylphenyl)-2-methyl-3-thioxo-[1,2,4]oxadiazinan-5-one] | 221% | 
152 to 154 °C | CN1OCC(=O)N(C(c2ccccc2)c2ccccc2)C1=S [Example 2, 4-Benzhydryl-2-methyl-3-thioxo-[1,2,4]oxadiazinan-5-one] | 60% | 
100 to 102 °C | Cc1ccc(Cl)cc1N1C(=O)CON(C)C1=S [Example 3, 4-(5-Chloro-2-methylphenyl)-2-methyl-3-thioxo-[1,2,4]oxadiazinan-5-one] | 236% | 
119 to 121 °C | CCN1OCC(=O)N(c2cc(Cl)ccc2C)C1=S [Example 4, 4-(5-Chloro-2-methylphenyl)-2-ethyl-3-thioxo-[1,2,4]oxadiazinan-5-one] |  | 136%
135 to 137 °C | CN1OCC(=O)N(c2ccc3c(c2)CCC3)C1=S [Example 5, 4-Indan-5-yl-2-methyl-3-thioxo-[1,2,4]oxadiazinan-5-one] | 192% | 
104 to 106 °C | Cc1ccc(C)c(N2C(=O)CON(C)C2=S)c1 [Example 6, 4-(2,5-Dimethylphenyl)-2-methyl-3-thioxo-[1,2,4]oxadiazinan-5-one] | 72% | 
176 to 178 °C | Cc1cccc(Cl)c1N1C(=O)CON(C)C1=S [Example 7, 4-(2-Chloro-6-methylphenyl)-2-methyl-3-thioxo-[1,2,4]oxadiazinan-5-one] | 100% | 
98 to 101 °C | CC(C)c1ccccc1N1C(=O)CON(C)C1=S [Example 8, 4-(2-Isopropylphenyl)-2-methyl-3-thioxo-[1,2,4]oxadiazinan-5-one] | 95% | 
168 to 170 °C | CN1OCC(=O)N(c2ccc(C(C)(C)C)cc2)C1=S [Example 9, 4-(4-tert-Butylphenyl)-2-methyl-3-thioxo-[1,2,4]oxadiazinan-5-one] | 170% | 
159 to 160 °C | CN1OCC(=O)N(c2ccc(Oc3ccccc3)cc2)C1=S [Example 10, 4-(4-Phenoxyphenyl)-2-methyl-3-thioxo-[1,2,4]oxadiazinan-5-one] | 102% | 
189 to 191 °C | COc1ccc(Cl)cc1N1C(=O)CON(C)C1=S [Example 11, 4-(5-Chloro-2-methoxyphenyl)-2-methyl-3-thioxo-[1,2,4]oxadiazinan-5-one] | 78% | 
